Assay results: patent US9062051B2, “Compounds and pharmaceutical compositions thereof for the treatment of proliferative disorders” (GALAPAGOS NV, priority 2014, dated 2015)

How the values were obtained:
EphA4 = biological target: T1, EphA4 (UniProt Ref: P54764) (Homo sapiens, UniProt P54764); test: EphA4 assay (Reaction Biology HotSpot radioactive kinase assay); assay type: biochemical; conditions: EphA4 potency; ATP 10 μM
T1 construct: purchased Reaction Biology
Method: (§1) Inhibition of EphA4 (UniProt Ref: P54764) by a test compound is determined by a commercially available Reaction Biology proprietary nanoliter radioactive HotSpot^SM assay (Reaction Biology, One great valley parkway, Suite 2, Malvern Pa., 19355, USA). The principle of the assay consists of the measurement of incorporated ^33P into poly[Glu:Tyr] (4:1) (0.2 mg/mL) when the substrate is phosphorylated by the enzyme using [^33P]-γ-ATP and ATP (10 μM).
(§2) To determine the IC50, a serial dilution of compound is tested starting from 10 or 3 μM (highest dilution) with a 1/3 dilution.

[1] = In vivo efficacy in the rat MNX (meniscectomised) model of osteoarthritis, OARSI score; design: species or system female Lewis rat; conditions: versus MNX-vehicle
Description: In vivo efficacy was studied in a female Lewis meniscectomised rat (MNX) model. The MNX rat model is a well-validated disease model of osteoarthritis (Janusz et al., 2002; Pritzker et al., 2006; Bendele et al., 2001).
Osteoarthritis is induced by meniscectomy at day 0 (D0) in the right leg of each rat by a transection of the medial collateral ligament and 4 mm of ligament are removed. Internal part of the meniscus is transected vertically into two flaps which are pushed to the front and the back of the synovial cavity. Sham animals undergo only anaesthesia, skin and muscle incision then suture. On day 1, rats are randomly assigned to a treatment group (n=20 per group) according to their body weight, in order to have a homogenous distribution. From D2 to D21, rats are dosed per os (po) once daily (qd) or twice a day (bid) with compounds formulated in methylcellulose (MC) 0.5% or in HPβCD 10% pH3.0.
After at least 7 days of treatment, blood is sampled at 4 time points post administration: 0, 1, 3 and 6 h (and assuming 24 h is equal to the pre-dose sample), in order to determine steady-state plasma exposure.
At sacrifice, the right tibia of each rat is collected and processed for histological analysis. After 48 h of fixation in 4% formaldehyde, tibias are decalcified in Osteosoft for 7 days, and cut into 2 half parts prior to embedding face to face in paraffin. Five series of sections are cut at 200 μm intervals, covering about 1.5 mm of the middle part of the bone. One series of slides is stained with Safranin O and light green for morphological evaluation and OARSI scoring. The other series of slides are mounted with DAPI for chondrocyte density measurement.
The extent of cartilage injury reflecting osteoarthritis in the tibial plateau is evaluated and scored using the OARSI method based on the grading and the staging of cartilage lesion (Pritzker et al., 2006). The OARSI scoring is assessed in a blinded manner by two different readers. For each tibia, one score is attributed as the median of the OARSI score of the 5 sections.
OARSI score=grade×stage (1 to 24)
Grade=lesion depth into cartilage area, providing information on arthritis severity.
Stage=lesion extent over cartilage surface, providing information on arthritis extent.
For statistical analysis, medians of groups are compared with a stratified Kruskal-Wallis test followed by Dunnett multiple comparison post hoc test.
Significance levels: *p<0.05; **p<0.01; ***p<0.001 versus MNX-vehicle. Statistical analyses are done on all groups of the studies

EphB4 = biological target: T2, EphB4 (UniProt Ref: Q541P7) (Homo sapiens, UniProt P54760); test: EphB4 assay (Reaction Biology HotSpot radioactive kinase assay); assay type: biochemical; conditions: ATP 10 μM; read-out: EphB4 potency IC50
T2 construct: purchased Reaction Biology
T2 sequence (P54760 16-987): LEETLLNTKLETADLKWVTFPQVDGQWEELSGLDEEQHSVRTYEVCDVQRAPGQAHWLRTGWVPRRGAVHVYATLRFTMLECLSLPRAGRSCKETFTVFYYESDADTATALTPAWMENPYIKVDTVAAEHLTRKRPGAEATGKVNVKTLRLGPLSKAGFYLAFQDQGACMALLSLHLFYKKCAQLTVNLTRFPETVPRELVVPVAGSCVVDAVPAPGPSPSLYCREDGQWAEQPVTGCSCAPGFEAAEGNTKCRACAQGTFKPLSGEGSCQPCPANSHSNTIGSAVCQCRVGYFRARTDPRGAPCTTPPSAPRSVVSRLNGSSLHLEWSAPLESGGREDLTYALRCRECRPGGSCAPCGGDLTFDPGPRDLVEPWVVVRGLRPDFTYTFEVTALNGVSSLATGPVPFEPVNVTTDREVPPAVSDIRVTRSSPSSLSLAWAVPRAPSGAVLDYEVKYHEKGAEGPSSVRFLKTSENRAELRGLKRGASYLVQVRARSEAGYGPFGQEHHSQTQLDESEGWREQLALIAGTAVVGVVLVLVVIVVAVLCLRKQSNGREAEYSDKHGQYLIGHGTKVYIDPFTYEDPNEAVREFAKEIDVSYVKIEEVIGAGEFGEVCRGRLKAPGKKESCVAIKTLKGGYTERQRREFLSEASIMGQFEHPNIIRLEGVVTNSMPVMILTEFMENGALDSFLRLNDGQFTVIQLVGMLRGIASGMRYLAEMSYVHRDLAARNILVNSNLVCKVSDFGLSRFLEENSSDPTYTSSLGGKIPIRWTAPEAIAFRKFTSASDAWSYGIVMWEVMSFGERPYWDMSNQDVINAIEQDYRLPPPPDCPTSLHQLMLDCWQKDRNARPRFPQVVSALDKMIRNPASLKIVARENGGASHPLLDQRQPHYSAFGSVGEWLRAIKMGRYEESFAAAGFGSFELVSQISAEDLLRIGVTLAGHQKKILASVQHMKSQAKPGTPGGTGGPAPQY
Method: as §1, with “EphB4” for “EphA4”, “Q541P7)” for “P54764)”
as §2

T1 sequence (P54764 20-986): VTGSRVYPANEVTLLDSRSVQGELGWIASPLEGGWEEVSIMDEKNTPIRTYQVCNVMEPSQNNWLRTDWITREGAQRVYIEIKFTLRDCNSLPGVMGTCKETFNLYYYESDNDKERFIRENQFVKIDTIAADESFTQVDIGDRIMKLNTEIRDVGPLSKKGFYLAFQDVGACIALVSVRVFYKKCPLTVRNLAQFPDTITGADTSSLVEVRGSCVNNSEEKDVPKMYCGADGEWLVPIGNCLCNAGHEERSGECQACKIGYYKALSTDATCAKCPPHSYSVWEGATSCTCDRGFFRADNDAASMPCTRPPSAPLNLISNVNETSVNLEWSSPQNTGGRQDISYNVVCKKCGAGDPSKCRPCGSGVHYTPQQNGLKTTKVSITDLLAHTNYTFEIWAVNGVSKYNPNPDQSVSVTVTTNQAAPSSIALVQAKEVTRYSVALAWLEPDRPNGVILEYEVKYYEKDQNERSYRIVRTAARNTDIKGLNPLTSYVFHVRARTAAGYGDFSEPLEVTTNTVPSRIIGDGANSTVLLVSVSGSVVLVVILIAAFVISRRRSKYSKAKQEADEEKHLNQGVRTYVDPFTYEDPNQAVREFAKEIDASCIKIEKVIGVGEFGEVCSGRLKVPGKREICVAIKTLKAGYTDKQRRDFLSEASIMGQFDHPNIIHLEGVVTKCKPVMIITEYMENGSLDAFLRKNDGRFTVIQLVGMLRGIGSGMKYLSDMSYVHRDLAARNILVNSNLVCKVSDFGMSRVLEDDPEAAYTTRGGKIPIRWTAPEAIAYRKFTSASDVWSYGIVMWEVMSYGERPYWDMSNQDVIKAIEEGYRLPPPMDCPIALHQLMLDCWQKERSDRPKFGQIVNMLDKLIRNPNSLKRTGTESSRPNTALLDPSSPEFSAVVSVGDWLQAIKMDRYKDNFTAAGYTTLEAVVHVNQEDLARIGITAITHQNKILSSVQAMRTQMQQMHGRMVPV

| SMILES | IC50 (EphB4) [nM] | further results |
| --- | --- | --- |
| Cc1ccc(NC(=O)c2cccc(C(F)(F)F)c2)cc1-c1ccc2c(C(O)CN3CCOCC3)n[nH]c2n1 (centres unmarked) [Compound 2, N-{3-[3-(1-Hydroxy-2-morpholin-4-yl-ethyl)-1H-pyrazolo[3,4-b]pyridin-6-yl]-4-methyl-phenyl}-3-trifluoromethyl-benzamide] | 0.01 to 25 | IC50 (EphA4): 0.01 to 25 nM; OARSI score ([1]; 20 mg/kg): −17%, p < 0.05 |
| Cc1cccc(C(=O)Nc2ccc(C)c(-c3ccc4c(C(O)CN5CCOCC5)n[nH]c4n3)c2)c1 (centres unmarked) [Compound 3, N-{3-[3-(1-Hydroxy-2-morpholin-4-yl-ethyl)-1H-pyrazolo[3,4-b]pyridin-6-yl]-4-methyl-phenyl}-3-methyl-benzamide] | 0.01 to 25 | – |
| COc1cc(OC)cc(C(=O)Nc2ccc(C)c(-c3ccc4c(C(O)CN5CCOCC5)n[nH]c4n3)c2)c1 (centres unmarked) [Compound 4, N-{3-[3-(1-Hydroxy-2-morpholin-4-yl-ethyl)-1H-pyrazolo[3,4-b]pyridin-6-yl]-4-methyl-phenyl}-3,5-dimethoxy-benzamide] | 25 to 50 | – |
| Cc1ccc(C(=O)Nc2cccc(C(F)(F)F)c2)cc1-c1ccc2c(C(O)CN3CCOCC3)n[nH]c2n1 (centres unmarked) [Compound 5, 3-[3-(1-Hydroxy-2-morpholin-4-yl-ethyl)-1H-pyrazolo[3,4-b]pyridin-6-yl]-4-methyl-N-(3-trifluoromethyl-phenyl)-benzamide] | 25 to 50 | – |
| Cc1ccc(NC(=O)c2cccc(N(C)C)c2)cc1-c1ccc2c(C(O)CN3CCOCC3)n[nH]c2n1 (centres unmarked) [Compound 6, 3-Dimethylamino-N-{3-[3-(1-hydroxy-2-morpholin-4-yl-ethyl)-1H-pyrazolo[3,4-b]pyridin-6-yl]-4-methyl-phenyl}-benzamide] | 25 to 50 | OARSI score ([1]; 30 mg/kg): ns |
| COc1cc(OC)cc(C(=O)Nc2ccc(C)c(-c3ccc4c(C(C)O)n[nH]c4n3)c2)c1 (centres unmarked) [Compound 9, N-{3-[3-(1-Hydroxy-ethyl)-1H-pyrazolo[3,4-b]pyridin-6-yl]-4-methyl-phenyl}-3,5-dimethoxy-benzamide] | 25 to 50 | IC50 (EphA4): 50 to 100 nM; OARSI score ([1]; 30 mg/kg): ns |
| COc1cc(OC)cc(C(=O)Nc2ccc(C)c(-c3ccc4c(C)n[nH]c4n3)c2)c1 [Compound 11, 3,5-Dimethoxy-N-[4-methyl-3-(3-methyl-1H-pyrazolo[3,4-b]pyridin-6-yl)-phenyl]-benzamide] | 0.01 to 25 | – |
| CCc1n[nH]c2nc(-c3cc(NC(=O)c4cc(OC)cc(OC)c4)cnc3C)ccc12 [Compound 13, N-[5-(3-Ethyl-1H-pyrazolo[3,4-b]pyridin-6-yl)-6-methyl-pyridin-3-yl]-3,5-dimethoxy-benzamide] | 25 to 50 | OARSI score ([1]; 30 mg/kg): ns |
| Cc1cc(C)cc(C(=O)Nc2ccc(C)c(-c3ccc4c(CO)n[nH]c4n3)c2)c1 [Compound 16, N-[3-(3-Hydroxymethyl-1H-pyrazolo[3,4-b]pyridin-6-yl)-4-methyl-phenyl]-3,5-dimethyl-benzamide] | 0.01 to 25 | – |
| COc1cc(OC)cc(C(=O)Nc2cnc(C)c(-c3ccc4c(C)n[nH]c4n3)c2)c1 [Compound 17, 3,5-Dimethoxy-N-[6-methyl-5-(3-methyl-1H-pyrazolo[3,4-b]pyridin-6-yl)-pyridin-3-yl]-benzamide] | 25 to 50 | – |
| CCc1n[nH]c2nc(-c3cc(NC(=O)c4cc(C)cc(OCCN5CCOCC5)c4)ccc3C)ccc12 [Compound 20, N-[3-(3-Ethyl-1H-pyrazolo[3,4-b]pyridin-6-yl)-4-methyl-phenyl]-3-methyl-5-(2-morpholin-4-yl-ethoxy)-benzamide] | 0.01 to 25 | – |
| CCc1n[nH]c2nc(-c3cc(NC(=O)c4cc(C)cc(OCCOC)c4)ccc3C)ccc12 [Compound 21, N-[3-(3-Ethyl-1H-pyrazolo[3,4-b]pyridin-6-yl)-4-methyl-phenyl]-3-(2-methoxy-ethoxy)-5-methyl-benzamide] | 0.01 to 25 | – |
| COc1cc(OC)cc(C(=O)Nc2ccc(C)c(-c3ccc4c(C5(O)CC5)n[nH]c4n3)c2)c1 [Compound 29, N-{3-[3-(1-Hydroxy-cyclopropyl)-1H-pyrazolo[3,4-b]pyridin-6-yl]-4-methyl-phenyl}-3,5-dimethoxy-benzamide] | – | IC50 (EphA4): > 100 nM; OARSI score ([1]; 15 mg/kg): ns |
| Cc1ccc(NC(=O)c2cccc(C(F)(F)F)c2)cc1-c1ccc2c(C(C)O)n[nH]c2n1 (centres unmarked) [Compound 35, N-{3-[3-(1-Hydroxy-ethyl)-1H-pyrazolo[3,4-b]pyridin-6-yl]-4-methyl-phenyl}-3-trifluoromethyl-benzamide] | 25 to 50 | – |
| CCc1n[nH]c2nc(-c3cc(NC(=O)c4cc(OC)cc(C(F)(F)F)c4)cnc3C)ccc12 [Compound 49, N-[5-(3-Ethyl-1H-pyrazolo[3,4-b]pyridin-6-yl)-6-methyl-pyridin-3-yl]-3-methoxy-5-trifluoromethyl-benzamide] | > 100 | – |
| CCc1n[nH]c2nc(-c3cc(NC(=O)c4cc(C)cc(C)c4)cnc3C)ccc12 [Compound 50, N-[5-(3-Ethyl-1H-pyrazolo[3,4-b]pyridin-6-yl)-6-methyl-pyridin-3-yl]-3,5-dimethyl-benzamide] | 0.01 to 25 | – |
| Cc1ccc(NC(=O)c2cccc(C(F)(F)F)c2)cc1-c1ccc2c([C@H](C)O)n[nH]c2n1 [Compound 55, N-{3-[3-((S)-1-Hydroxy-ethyl)-1H-pyrazolo[3,4-b]pyridin-6-yl]-4-methyl-phenyl}-3-trifluoromethyl-benzamide] | 0.01 to 25 | IC50 (EphA4): 25 to 50 nM; OARSI score ([1]; 30 mg/kg): −23%, p < 0.05 |
